Measurements as given in US11884681B2, “3H,4H,5H,6H,7H-pyrimido[4,5-b][1,4]oxazine-4,6-dione derivatives as TRPA1 inhibitors” (Boehringer Ingelheim International GmbH, priority 2021, dated 2024).

What was measured:
[1] = Assay B: Microsomal clearance; type: in vitro ADME, human; conditions: compounds of the invention; pooled liver microsomes 1 mg/ml, 1 μM compound, 37° C., NADPH
Protocol: Assay B: Microsomal Clearance:
The metabolic degradation of the test compound is assayed at 37° C. with pooled liver microsomes. The final incubation volume of 100 μl per time point contains TRIS buffer pH 7.6 at RT (0.1 M), magnesium chloride (5 mM), microsomal protein (1 mg/ml) and the test compound at a final concentration of 1 μM.
Following a short preincubation period at 37° C., the reactions are initiated by addition of beta-nicotinamide adenine dinucleotide phosphate, reduced form (NADPH, 1 mM) and terminated by transferring an aliquot into solvent after different time points (0, 5, 15, 30, 60 min). Additionally, the NADPH-independent degradation is monitored in incubations without NADPH, terminated at the last time point. The [%] remaining test compound after NADPH independent incubation is reflected by the parameter c(control) (metabolic stability). The quenched incubations are pelleted by centrifugation (10000 g, 5 min).
An aliquot of the supernatant is assayed by LC-MS/MS for the amount of parent compound. The half-life (t1/2 INVITRO) is determined by the slope of the semilogarithmic plot of the concentration-time profile.
The intrinsic clearance (CL_[…]) is calculated by considering the amount of protein in the incubation: CL_[…] [μl/min/mg protein]=(Ln 2/(half-life [min]*protein content [mg/ml]))*1000 CL_[…]_INVIVO [ml/min/kg]=(CL_[…] [μL/min/mg protein]×MPPGL [mg protein/g liver]×liver factor [g/kg bodyweight])/1000 Qh [%]=CL [ml/min/kg]/hepatic blood flow [ml/min/kg])
(§1) Hepatocellularity, human: 120×10e6 cells/g liver
(§2) Liver factor, human 25.7 g/kg bodyweight
(§3) Blood flow, human 21 ml/(min×kg)

human TRPA1 ion channel = molecular target: T1, human TRPA1 ion channel (Homo sapiens, UniProt O75762); experiment: Assay A: TRPA1 assay (FLIPR calcium, AITC agonism); type: cell-based; conditions: compounds of the invention; HEK293 over-expressing human TRPA1, AITC final 10 μM, FLIPRtetra; read-out: hTRPA1 IC50
T1 construct: host or cells: HEK293
Protocol: A human HEK293 cell line over-expressing the human TRPA1 ion channel (Perkin Elmer, Product No. AX-004-PCL) is used as a test system for compound efficacy and potency. Compound activity is determined by measuring the effect of compounds on intracellular calcium concentration induced by AITC (Allylisothiocyanat) agonism in a FLIPRtetra system (Molecular Devices).
The cells are obtained as frozen cells in cryo-vials and stored until use at −150° C. Cells are grown in culture medium (MEM/EBSS medium with 10% FCS and 0.4 mg/ML Geneticin). […] For sub-culturing cells are detached from flasks by Versene. At the day before the assay, cells are detached, washed twice with medium (MEM/EBSS medium with 10% FCS) and 20000 cells in 20 μl/well are seeded to Poly D-Lysin biocoated 384-well plates (black, clear bottom, Cat. 356697) from Corning. Plates are incubated for 24 hours at 37° C./5% CO2 before use in the assay.
The test compounds are dissolved in 100% DMSO at a concentration of 10 mM and in a first step diluted in DMSO to a concentration of 5 mM, followed by serial dilution steps in 100% DMSO. Dilution factor and number of dilution steps may vary according to needs. Typically 8 different concentrations by 1:5 dilutions are prepared, further intermediate dilutions (1:20) of the substances are carried out with HBSS/HEPES buffer (1×HEPES, Cat. 14065 from Gibco, 20 mM HEPES, Cat. 83264 from SIGMA, 0.1% BSA Cat. 11926 from Invitrogen, pH 7.4
At the assay day cells are washed 3× with assay puffer, 20 μL buffer remaining in the wells after washing. 10 μL Ca6 kit (Cat. R8191 MolecularDevices) loading buffer in HBSS/HEPES is added to the cells and the plates are incubated with lid for 120 minutes at 37°/5% CO2. […] Finally 10 μL of the agonist AITC 50 μM dissolved in HBSS/HEPES buffer/0.05% DMSO (final concentration 10 μM) is added to the wells followed by an additional read on the FLIPRtetra device for 10 minutes. The area under the signal curve (AUC) after AITC addition is used for IC50/% inhibition calculations
Data Evaluation and Calculation:
Each assay microtiter plate contains wells with vehicle (1% DMSO) controls instead of compound as controls for AITC induced luminescence (100% CTL; high controls) and wells with vehicle controls without AITC as controls for non-specific changes in luminescence (0% CTL; low controls).
The analysis of the data is performed by the calculation of the area under signal curve of the individual wells. Based on this values the % value for the measurement of each substance concentration is calculated (AUC(sample)−AUC(low))*100/(AUC(high)−AUC(low)) using MegaLab software (in house development). The IC50 values are calculated from the % control values using MegaLab software. Calculation: [y=(a−d)/(1+(x/c)^b)+d], a=low value, d=high value; x=conc M; c=IC50 M; b=hill; y=% ctrl

[2] = Assay C: Hepatocyte clearance; type: in vitro ADME, human; conditions: compounds of the invention; hepatocyte suspension, 5% species serum, 1 μM compound, up to 6 h
Protocol: Assay C: Hepatocyte Clearance
The metabolic degradation of the test compound is assayed in a hepatocyte suspension. Hepatocytes (cryopreserved) are incubated in Dulbecco's modified eagle medium (supplemented with 3.5 μg glucagon/500 mL, 2.5 mg insulin/500 mL and 3.75 mg/500 mL hydrocortison) containing 5% species serum.
The cells are incubated for six hours (incubator, orbital shaker) and samples (25 μl) are taken at 0, 0.5, 1, 2, 4 and 6 hours. Samples are transferred into acetonitrile and pelleted by centrifugation (5 min). The supernatant is transferred to a new 96-deepwell plate, evaporated under nitrogen and resuspended.
Decline of parent compound is analyzed by HPLC-MS/MS
CLint is calculated as follows CL_[…]=Dose/AUC=(CO/CD)/(AUD+clast/k)×1000/60. C0: initial concentration in the incubation [μM], CD: cell density of vital cells [10e6cells/mL], AUD: area under the data [μM×h], clast: concentration of last data point [μM], k: slope of the regression line for parent decline [h−1].
The calculated in vitro hepatic intrinsic clearance can be scaled up to the intrinsic in vivo hepatic Clearance and used to predict hepatic in vivo blood clearance (CL) by the use of a liver model (well stirred model). CL_[…]_INVIVO [ml/min/kg]=(CL_[…] [μL/min/10e6cells]×hepatocellularity [10e6 cells/g liver]×liver factor [g/kg bodyweight])/1000 CL [ml/min/kg]=CL_[…]_INVIVO [ml/min/kg]×hepatic blood flow [ml/min/kg]/(CL_[…]_INVIVO [ml/min/kg]+hepatic blood flow [ml/min/kg]) Qh [%]=CL [ml/min/kg]/hepatic blood flow [ml/min/kg])
as §1, §2, §3

T1 sequence (O75762 whole entry): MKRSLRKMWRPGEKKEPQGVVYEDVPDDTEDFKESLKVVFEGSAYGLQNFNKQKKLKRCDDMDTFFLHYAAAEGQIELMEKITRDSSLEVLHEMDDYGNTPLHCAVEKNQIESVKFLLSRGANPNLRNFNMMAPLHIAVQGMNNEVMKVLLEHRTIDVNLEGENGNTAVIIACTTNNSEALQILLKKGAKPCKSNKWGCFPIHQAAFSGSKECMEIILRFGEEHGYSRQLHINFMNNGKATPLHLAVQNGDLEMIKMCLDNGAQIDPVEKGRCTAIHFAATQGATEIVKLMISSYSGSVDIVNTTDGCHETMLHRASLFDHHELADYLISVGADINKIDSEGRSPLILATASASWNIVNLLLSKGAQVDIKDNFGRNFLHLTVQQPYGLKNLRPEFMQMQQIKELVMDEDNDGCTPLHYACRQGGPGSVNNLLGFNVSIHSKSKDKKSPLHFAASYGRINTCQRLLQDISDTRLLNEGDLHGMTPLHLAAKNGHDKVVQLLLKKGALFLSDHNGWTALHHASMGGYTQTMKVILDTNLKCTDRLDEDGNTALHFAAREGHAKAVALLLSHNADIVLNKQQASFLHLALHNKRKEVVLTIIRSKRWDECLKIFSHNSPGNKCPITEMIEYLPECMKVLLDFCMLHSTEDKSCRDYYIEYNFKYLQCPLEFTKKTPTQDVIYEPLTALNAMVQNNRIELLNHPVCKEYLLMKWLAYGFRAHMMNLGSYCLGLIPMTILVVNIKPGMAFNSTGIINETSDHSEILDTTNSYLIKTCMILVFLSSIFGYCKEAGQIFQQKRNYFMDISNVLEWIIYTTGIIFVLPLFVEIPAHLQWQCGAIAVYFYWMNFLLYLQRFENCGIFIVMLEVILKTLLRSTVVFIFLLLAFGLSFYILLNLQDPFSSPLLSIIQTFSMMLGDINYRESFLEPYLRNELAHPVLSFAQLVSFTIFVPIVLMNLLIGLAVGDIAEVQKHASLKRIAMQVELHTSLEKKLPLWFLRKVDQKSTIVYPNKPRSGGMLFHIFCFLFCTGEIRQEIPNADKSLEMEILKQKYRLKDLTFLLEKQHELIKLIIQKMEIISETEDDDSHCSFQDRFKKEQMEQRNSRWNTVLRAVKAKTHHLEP

With Cc1ccc([C@@H](O)Cc2noc(Cn3cnc4c(c3=O)N(C)C(=O)CO4)n2)cc1 [Example 7] the “human LM” value [1] was <23 % Qh, the IC50 (human TRPA1 ion channel) was 0.12 µM and the “human Hepatocytes” value [2] was 9 % Qh.
In the case of CN1C(=O)COc2ncn(Cc3nc(C[C@H](O)c4ccc(I)cc4)no3)c(=O)c21 [Example 5], the “human LM” value [1] is reported as 29 % Qh, the IC50 (human TRPA1 ion channel) is reported as 0.039 µM and the “human Hepatocytes” value [2] is reported as 22 % Qh.
In the case of CN1C(=O)COc2ncn(Cc3nc(C[C@H](O)c4cc5ccc(F)cc5s4)no3)c(=O)c21 [Example 2], the “human LM” value [1] is reported as <23 % Qh, the IC50 (human TRPA1 ion channel) is reported as 0.012 µM and the “human Hepatocytes” value [2] is reported as 34 % Qh.
For CN1C(=O)COc2ncn(Cc3nc(C[C@H](O)c4cc5cc(F)ccc5o4)no3)c(=O)c21 [Example 4], the “human LM” value [1] was <23 % Qh, the IC50 (human TRPA1 ion channel) was 0.039 µM and the “human Hepatocytes” value [2] was 22 % Qh.
In the case of CN1C(=O)COc2ncn(Cc3nc(C[C@H](O)c4ccc(Cl)cc4)no3)c(=O)c21 [Example 1, 3-({3-[(2S)-2-(4-chlorophenyl)-2-hydroxyethyl]-1,2,4-oxadiazol-5-yl}methyl)-5-methyl-3H,4H,5H,6H,7H-pyrimido[4,5-b][1,4]oxazine-4,6-dione], the “human LM” value [1] is reported as <23 % Qh, the IC50 (human TRPA1 ion channel) is reported as 0.057 µM and the “human Hepatocytes” value [2] is reported as 9 % Qh.
For CN1C(=O)COc2ncn(Cc3nc(C[C@H](O)c4cc5cc(Cl)ccc5o4)no3)c(=O)c21 [Example 6], the “human LM” value [1] was 56 % Qh, the IC50 (human TRPA1 ion channel) was 0.051 µM and the “human Hepatocytes” value [2] was 37 % Qh.
For CN1C(=O)COc2ncn(Cc3nc(C[C@H](O)c4cc5ccccc5s4)no3)c(=O)c21 [Example 3], the “human LM” value [1] was <23 % Qh, the IC50 (human TRPA1 ion channel) was 0.027 µM and the “human Hepatocytes” value [2] was 31 % Qh.
